The record followed here is patent US12133900B2, “Synthesis and composition of amino acid linking groups conjugated to compounds used for the targeted imaging of tumors” (Purdue Research Foundation, priority 2013, dated 2024).

Data set [1] has as its target T1, folate receptor (FR-α) on KB cells (Homo sapiens, UniProt P15328).
T1 construct: KB cells that overexpress FR-α were seeded in 24-well (100,000 cells/well) Falcon plates; host or cells: KB cells (human; described as a HeLa derivative)
Put plainly: Competition binding with [3H]-folic acid on KB cells. As to conditions: for pKd: 10 nM [3H]-folic acid, 1 h at 37 °C, read-out: dissociation constants (KD); for pKd / affinity and specificity for folate receptor (words): KB cells; for Relative binding affinities: relative affinity of folic acid=1, <1 weaker. As for the experimental part:
KB cells that overexpress FR-α were seeded in 24-well (100,000 cells/well) Falcon plates and allowed to form monolayers over a period of 24 h. […] After incubating for 1 hour at 37° C., cells were rinsed with PBS (2×0.5 mL) and 1M trichloroacetic acid (1×0.5 mL) to remove any unbound radioactive materials. After adding 1% sodium dodecylsulfate in PBS (0.5 mL), cells were transferred into individual scintillation vials containing Ecolume scintillation cocktail (3.0 mL) and counted in a liquid scintillation analyzer. The relative binding affinities were calculated using a plot of cell bound radioactivity versus the concentration of the test article using Graph Pad Prism 4.
(§1) KB cells that overexpress FR-α were seeded in 24-well (100,000 cells/well) Falcon plates (BD Biosciences, CA) and allowed to form monolayers over a period of 12 h. […] After incubating for 1 h at 37° C., cells were rinsed with PBS (3×0.5 mL, Gibco, NY) to remove any unbound radioactive materials. After adding 0.25 M sodium hydroxide (0.5 mL) and incubating for 12 h at 4° C., cells were transferred into individual scintillation vials containing Ecolite scintillation cocktail (3.0 mL, MP Biomedicals, OH) and counted in a liquid scintillation analyzer (Packard). The relative binding affinities were calculated using a plot of % cell bound radioactivity versus the log concentration of the test article using GraphPad Prism 4.
as §1, with “12 hours.” for “12 h.”, “1 hour” for “1 h”, “12 hours” for “12 h”

Data set [2] has as its system folate receptor positive KB tumor xenografts. Briefly: Whole body imaging and tissue biodistribution, KB tumor xenografts. Type of data set: in vivo, mice. The following applies: for tumor fluorescence intensity, direct comparison / whole body imaging: accumulation: 10 nmol i.v.; for tumor fluorescence intensity, direct comparison / whole body imaging: accumulation / tumor fluorescence: 2 h; for tumor fluorescence: 10 nmol. As for the experimental part: (§2) Seven-week-old female nu/nu mice were inoculated subcutaneously with KB cells (1.0×10^6/mouse in folate free RPM11640 medium) on the shoulder. […] […] Whole body imaging (intact tumor) experiments were then performed using a Caliper IVIS Lumina II Imaging Station with Living Image 4.0 software (PerkinElmer Inc, MA). Settings for imaging:—lamp level: medium; excitation: 745 nm; emission: 830 nm; epi illumination; binning: 4 (M), FOV=12.5; f-stop=2; acquisition time=1 s.
Following whole body imaging, animals were dissected and selected tissues (heart, lung, liver, spleen, kidneys, stomach, small intestine, large intestine, muscle, skin, tumor) were analyzed for fluorescence activity using IVIS imager as before. Settings for imaging: lamp level: medium; excitation: 745 nm; emission: 830 nm; epi illumination; binning: 4 (M), FOV=12.5; f-stop=2; acquisition time=1 s.
as §2, with “shoulder. Growth of the tumors was measured in perpendicular directions every 2 days using a caliper (body weights were monitored on the same schedule), and the volumes of the tumors were calculated as 0.5×L×W^2 (L=longest axis and W=axis perpendicular to L in millimeters).” for “shoulder.”, “ICG (830 nm);” for “830 nm;”
Following whole body imaging, animals were dissected and selected tissues (heart, lung, liver, spleen, kidneys, stomach, small intestine, large intestine, muscle, skin, and tumor) were analyzed for fluorescence activity using IVIS imager as before. Settings for imaging:—lamp level: medium; excitation: 745 nm; emission:ICG (830 nm); epi illumination; binning: 4 (M), FOV=12.5; f-stop=2; acquisition time=1 s.
Five-week-old female nu/nu mice were inoculated subcutaneously with KB cells (1.0×10^6/mouse in RPMI medium) on their shoulders. Growth of the tumors was measured in two perpendicular directions every 2 days using a caliper (body weights were monitored on the same schedule), and the volumes of the tumors were calculated as 0.5×L×W^2 (L) longest axis and W) axis perpendicular to L in millimeters). Once tumors reached between 400 and 500 mm3 in volume, animals were treated with folate receptor-targeted NIR dye conjugate (10 nmol) in phosphate buffered saline (100 μL). […]
Animal imaging experiments were performed using a Caliper Ivis Lumina II Imaging Station with Living Image 4.0 software. Settings for imaging Alexa Fluor 647 and DyLight 680 conjugates: lamp level: high; excitation: 605; emission: Cy5.5; epi illumination; binning: (M) 4; FOV=7.5; f-stop=4; acquisition time=1 s. Settings for imaging DyLight 750 and IR800CW conjugates: lamp level: high; excitation: 745; emission: ICG; epi illumination; binning: (M) 4, FOV=12.5; f-stop=4; acquisition time=1 s.
Seven-week-old female nu/nu mice were inoculated subcutaneously with KB cells (1.0×10^6/mouse in folate free RPM11640 medium) on the shoulder. Growth of the tumors was measured in perpendicular directions every 2 days using a caliper (body weights were monitored on the same schedule), and the volumes of the tumors were calculated as 0.5×L×W^2 (L=longest axis and W=axis perpendicular to L in millimeters). Once tumors reached between 400 and 500 mm3 in volume, animals (5 mice/group) were intravenously injected with 10 nmol of OTL-0038 or OTL-0039 in phosphate buffered saline (100 μL). After 2.5 hours, animals were euthanized by CO2 asphyxiation. Whole body imaging (intact tumor) experiments were then performed using a Caliper IVIS Lumina II Imaging Station with Living Image 4.0 software (PerkinElmer Inc, MA). […]

Data set [3] in a line: Chemical and optical properties of NIR dyes (Table 1). It counts as physicochemical.

pKd: −log10 of the molar value. Entries after “also recorded” stand apart in the source; their conditions may differ.

T1 sequence (P15328 25-234): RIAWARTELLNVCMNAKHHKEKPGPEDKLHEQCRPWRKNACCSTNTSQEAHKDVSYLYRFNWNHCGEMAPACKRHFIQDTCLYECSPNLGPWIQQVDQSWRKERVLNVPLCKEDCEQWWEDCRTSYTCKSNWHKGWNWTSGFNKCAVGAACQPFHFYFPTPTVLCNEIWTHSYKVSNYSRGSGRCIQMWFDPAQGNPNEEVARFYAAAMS

The term pKd denotes the Kd on a negative log10 scale, so that one unit is a factor of ten. Pte-Tyramine-S0456 [OTL-0049]: in data set [1], the negative logarithm of the Kd (pKd) was 7.52 and the Relative binding affinities is reported as 0.265.
In the case of Pte-Tyr-(OBn)-S0456 [OTL-0043], in data set [1], the negative logarithm of the Kd (pKd) is 7.83 and the Relative binding affinities amounted to 0.177.
Regarding Pte-Tyr-2H(Deuterated)-S0456 [OTL-0042], in data set [1], the pKd is 7.21 and the Relative binding affinities came out at 0.130.
With FA-EDA-Kodak2 [OTL-0004], in data set [2], the “tumor fluorescence intensity, direct comparison” value (from here on “tumor fluorescence intensity”) was “very low specificity for the tumor and low fluorescence”; the “whole body imaging: accumulation” value was “did not accumulated in the tumors”. In data set [1], the pKd is 7.51 and the Relative binding affinities came out at 0.271.
In the case of Pteroyl-Lys-S0456 [OTL-0053], the tumor fluorescence entry in data set [2] (excited at 605-675 nm, emitted at ICG (830 nm)) is given as “bright tumor fluorescence”; in data set [2] (excited at 710-745 nm, emitted at ICG) it was “only a moderate brightness”. The “Stoke's shift” value in data set [2] (in vivo imaging) is reported as “longer Stoke's shift”.
For the compound FA-EDA-IR800 [OTL-0002], in data set [2], the “tumor fluorescence intensity” value was “brighter (higher fluorescence intensity); also recorded: highest tumor-accumulated fluorescence” and the “whole body imaging: accumulation” value is listed as “accumulated predominantly in the folate receptor positive tumors”. In addition, in data set [1], the pKd is 7.71 and the Relative binding affinities stood at 0.430.
Pteroyl-Cys-S0456 [OTL-0054]: the “whole body imaging: accumulation” value in data set [2] is “accumulated predominantly in the folate receptor-positive tumors”.
Consider `CC1(C)C(=CC=C2CCCC(C=CC3=[N+](CCC[N+](C)(C)C)c4ccc(S(=O)(=O)O)cc4C3(C)C)=C2Oc2ccc(CCC(=O)O)cc2)N(CCC[N+](C)(C)C)c2ccc(S(=O)(=O)O)cc21` [ZW80o], for which, in data set [3], the “E” value was 249000 M⁻¹ cm⁻¹, the “Q (%)” value is 15.1%, the “Stokes Shift (nm)” value came out at 16 nm and the “λem (nm)” value was determined as 772 nm. In addition, the “λex (nm)” value in data set [3] is 788 nm.
FA-EDA-ZW800 [OTL-0003]: in data set [2], the “tumor fluorescence intensity” value is given as “highest tumor-accumulated fluorescence” and the “whole body imaging: accumulation” value is given as “accumulated predominantly in the folate receptor positive tumors”. In addition, in data set [1], the pKd is 7.63 and the Relative binding affinities was 0.356.
For Pte-Tyr-13C-S0456 [OTL-0040], in data set [1], the pKd was 7.56 and the Relative binding affinities is 0.290.
In the case of `CC1(C)C(/C=C/C2=C(Oc3ccc(S(=O)(=O)O)cc3)C(=C/C=C3/N(CCCCS(=O)(=O)O)c4ccc(S(=O)(=O)[O-])cc4C3(C)C)/CCC2)=[N+](CCCCCC(=O)O)c2ccc(S(=O)(=O)O)cc21` [IR800CW], in data set [3], the “E” value was 237000 M⁻¹ cm⁻¹, the “Q (%)” value worked out at 14.2%, the “Stokes Shift (nm)” value is 14 nm and the “λem (nm)” value was found to be 786 nm. Besides, in data set [3], the “λex (nm)” value stood at 800 nm.
In the case of Pte-p-homo-Tyr-S0456 [OTL-0047], in data set [2], the “whole body imaging: accumulation” value is listed as “accumulated predominantly in the folate receptor-positive tumors; also recorded: mainly accumulated in the tumors”. Further, in data set [1], the pKd was 7.89 and the Relative binding affinities came out at 0.625.
Take Pte-N(Me)-Tyr-S0456 [OTL-0044]: the “whole body imaging: accumulation” value in data set [2] is on record as “accumulated predominantly in the folate receptor-positive tumors; also recorded: mainly accumulated in the tumors”. For the same compound, the “affinity and specificity for folate receptor (words)” value in data set [1] was “All the compounds have an affinity for folate receptor except OTL-0044 and OTL-0045”.
In the case of Pte-NHNH-Tyr-(OAc)-S0456 [OTL-0045], the “affinity and specificity for folate receptor (words)” value in data set [1] is “All the compounds have an affinity for folate receptor except OTL-0044 and OTL-0045”.
Turning to Pteroyl DAP-S0456 [OTL-0056], in data set [1], the negative logarithm of the Kd (pKd) is 7.02 and the Relative binding affinities was found to be 0.078.
Regarding FA-EDA-LS288 [OTL-0001], the “whole body imaging: accumulation” value in data set [2] is “accumulated predominantly in the folate receptor positive tumors”. In data set [1], the pKd is 7.51 and the Relative binding affinities was found to be 0.270.
With `CC1(C)C(/C=C/C=C/C=C/C=C2\N(CCCCS(=O)(=O)O)c3ccc4ccccc4c3C2(C)C)=[N+](CCCCS(=O)(=O)[O-])c2ccc3ccccc3c21` [ICG, indocyanine green], in data set [3], the “E” value was found to be 121000 M⁻¹ cm⁻¹, the “Q (%)” value stood at 9.3%, the “Stokes Shift (nm)” value is 15 nm and the “λem (nm)” value came out at 807 nm. Also, the “λex (nm)” value in data set [3] amounted to 822 nm.
Regarding Pte-homo-Tyr-S0456 [OTL-0046], in data set [2], the “whole body imaging: accumulation” value is on record as “accumulated predominantly in the folate receptor-positive tumors; also recorded: mainly accumulated in the tumors”. For the same compound, in data set [1], the pKd is 7.86 and the Relative binding affinities stood at 0.580.
